{
  "source": "paper PMC7835349",
  "about": "(Communications Biology, 2021)",
  "key": {"telemetered dogs": {"system": "telemetered dogs", "details": "dog, in vivo, 60 mg/kg"}, "OCI-LY10 xenograft": {"system": "OCI-LY10 xenograft", "assay": "OCI-LY10 xenograft efficacy and survival", "format": "in vivo, C.B-17 SCID mouse", "parameters": "OCI-LY10 xenograft efficacy, individual animals: unit not given here", "details": "for OCI-LY10 xenograft efficacy, individual animals: AZD0466 103 mg/kg (30mg/kg AZD4320)", "protocol": "Female C.B.−17 SCID mice were purchased from Charles River Laboratories. Mice were 5–8 weeks old at the time of tumour implantation. All xenograft studies were conducted at our Association for the Assessment and Accreditation of Laboratory Animal Care accredited facility in Waltham, MA in accordance with ethical regulations described in the guidelines established by the internal Institutional Animal Care and Use Committee. The dendrimer conjugates were formulated in citrate/phosphate buffer pH 5.0, diluted 1:10 with 5% glucose containing 1% w/v Kolliphor HS15, and AZD4320 was formulated in 30% HP-β-CD and dosed as a weekly intravenous (IV) administration at a volume of 5 ml/kg at the indicated doses. Five million RS4;11, five million SUDHL-4 or five million OCI-LY-10 cells were injected subcutaneously in the right flank of mice in a volume of 0.1 ml. Tumour volumes (measured by caliper), animal body weight, and tumor condition were recorded twice weekly for the duration of the study. The tumour volume was calculated (taking length to be the longest diameter across the tumour and width to be the corresponding perpendicular diameter) using the formula: length (mm) x width (mm)^2/0.52. For efficacy studies, mice were randomized based on tumour volumes using stratified sampling and enrolled into control and treatment groups. Tumour growth inhibition from the start of treatment was quantified by measuring the difference in tumour volume between control and treated groups. Survival analysis was evaluated using Mantel-Cox test. Tumours were also taken for bioanalysis."}, "[1]": {"system": "luciferase-tagged Ri-1 tumour cells", "assay": "Disseminated luciferase-tagged Ri-1 DLBCL model (bioluminescence)", "format": "in vivo, C.B-17 SCID mouse", "protocol": "Ten million luciferase-tagged Ri-1 tumour cells were injected intravenously in the tail vein of C.B.−17 SCID female mice in a volume of 0.1 ml. Tumour burden (determined by Xenogen IVIS imaging), body weight and health condition were recorded twice weekly for the duration of the study. For Xenogen imaging, mice received an intraperitoneal administration of 150 mg/kg D- Luciferin 10 to 15 minutes prior to imaging. Imaging was performed under isoflurane anaesthesia and data analyzed using Living Image software (Xenogen). Statistical significance was evaluated using non-parametric, unpaired, two-tailed t-test."}, "[2]": {"assay": "In vitro release of AZD4320 from conjugate in rat plasma with 5% HEPES, 37 °C (Fig S8)", "format": "in vitro ADME", "details": "Rat Plasma 37 °C", "protocol": "AZD4320 loading was quantified by 1H NMR spectroscopy. […]\nconjugated AZD4320 peak areas. […]\nAZD4320 conjugated dendrimer in plasma\nSupplementary Figure 8. Comparison and release rate in plasma and buffer. Cumulative in vitro release of AZD4320 measured over time from AZD4320-dendrimer conjugate SPL8977) in phosphate buffered saline (purple circles, n=3) and rat plasma (green squares, n=2) and fit to first order model at 37 °C (n=2) […]"}},
  "note": "“And” between values parts separate entries of the source, which are not always exact repeats. Identical values can stand only once.",
  "data": [
    {"substance": "AZD4320-MIDA-PEG2100 [AZD0466]", "values": [
      {"measurement": "adverse clinical signs", "setting": "telemetered dogs", "result": "not associated with any adverse clinical signs"},
      {"measurement": "OCI-LY10 xenograft efficacy, individual animals", "setting": "OCI-LY10 xenograft; day 18", "result": "193 and 170 and 155 and 173 and 235 and 111 and 163 and 131"},
      {"measurement": "OCI-LY10 xenograft efficacy, individual animals", "setting": "OCI-LY10 xenograft; day 21", "result": "363 and 334 and 195 and 394 and 490 and 191 and 262 and 142"},
      {"measurement": "OCI-LY10 xenograft efficacy, individual animals", "setting": "OCI-LY10 xenograft; day 25", "result": "214 and 151 and 62 and 129 and 351 and 181 and 222 and 188"},
      {"measurement": "OCI-LY10 xenograft efficacy, individual animals", "setting": "OCI-LY10 xenograft; day 28", "result": "475 and 406 and 118 and 241 and 485 and 190 and 184 and 194"},
      {"measurement": "OCI-LY10 xenograft efficacy, individual animals", "setting": "OCI-LY10 xenograft; day 32", "result": "410 and 443 and 252 and 338 and 536 and 215 and 401 and 301"},
      {"measurement": "OCI-LY10 xenograft efficacy, individual animals", "setting": "OCI-LY10 xenograft; day 35", "result": "664 and 595 and 309 and 391 and 667 and 265 and 496 and 262"},
      {"measurement": "OCI-LY10 xenograft efficacy, individual animals", "setting": "OCI-LY10 xenograft; day 39", "result": "653 and 578 and 346 and 432 and 638 and 281 and 354 and 330"},
      {"measurement": "OCI-LY10 xenograft efficacy, individual animals", "setting": "OCI-LY10 xenograft; day 42", "result": "773 and 918 and 408 and 717 and 707 and 404 and 319 and 272"},
      {"measurement": "mice with complete regressions", "setting": "OCI-LY10 xenograft; OCI-LY10, AZD0466 in combination with acalabrutinib", "result": "8/8"},
      {"measurement": "monotherapy activity", "setting": "OCI-LY10 xenograft; OCI-LY10 DLBCL model", "result": "neither agent showed any demonstrable monotherapy activity"},
      {"measurement": "Raw bioluminescence counts in individual animals", "setting": "[1]; AZD0466 34 mg/kg (10mg/kg AZD4320), day 1", "result": "1011000 counts and 1455000 counts and 962000 counts and 1223000 counts and 856300 counts"},
      {"measurement": "Raw bioluminescence counts in individual animals", "setting": "[1]; AZD0466 34 mg/kg (10mg/kg AZD4320), day 4", "result": "1131000 counts and 1477000 counts and 863000 counts and 1453000 counts and 1099000 counts"},
      {"measurement": "Raw bioluminescence counts in individual animals", "setting": "[1]; AZD0466 34 mg/kg (10mg/kg AZD4320), day 8", "result": "2077000 counts and 2641000 counts and 963600 counts and 3688000 counts and 1848000 counts"},
      {"measurement": "Raw bioluminescence counts in individual animals", "setting": "[1]; AZD0466 34 mg/kg (10mg/kg AZD4320), day 11", "result": "2663000 counts and 3475000 counts and 794700 counts and 3942000 counts and 2369000 counts"},
      {"measurement": "Raw bioluminescence counts in individual animals", "setting": "[1]; AZD0466 34 mg/kg (10mg/kg AZD4320), day 15", "result": "3909000 counts and 5355000 counts and 1268000 counts and 8178000 counts and 3745000 counts"},
      {"measurement": "Raw bioluminescence counts in individual animals", "setting": "[1]; AZD0466 103 mg/kg (30mg/kg AZD4320), day 1", "result": "1023000 counts and 885100 counts and 876200 counts and 2011000 counts and 1243000 counts"},
      {"measurement": "Raw bioluminescence counts in individual animals", "setting": "[1]; AZD0466 103 mg/kg (30mg/kg AZD4320), day 4", "result": "712200 counts and 758000 counts and 861600 counts and 963300 counts and 1088000 counts"},
      {"measurement": "Raw bioluminescence counts in individual animals", "setting": "[1]; AZD0466 103 mg/kg (30mg/kg AZD4320), day 8", "result": "888700 counts and 911000 counts and 1080000 counts and 921400 counts and 1303000 counts"},
      {"measurement": "Raw bioluminescence counts in individual animals", "setting": "[1]; AZD0466 103 mg/kg (30mg/kg AZD4320), day 11", "result": "687900 counts and 678400 counts and 868400 counts and 651900 counts and 817800 counts"},
      {"measurement": "Raw bioluminescence counts in individual animals", "setting": "[1]; AZD0466 103 mg/kg (30mg/kg AZD4320), day 15", "result": "1023000 counts and 956600 counts and 1075000 counts and 787100 counts and 1030000 counts"},
      {"measurement": "Raw bioluminescence counts in individual animals", "setting": "[1]; AZD0466 340 mg/kg (100mg/kg AZD4320), day 1", "result": "851500 counts and 1286000 counts and 895800 counts and 1120000 counts and 1558000 counts"},
      {"measurement": "Raw bioluminescence counts in individual animals", "setting": "[1]; AZD0466 340 mg/kg (100mg/kg AZD4320), day 4", "result": "675300 counts and 732000 counts and 775100 counts and 773400 counts and 665700 counts"},
      {"measurement": "Raw bioluminescence counts in individual animals", "setting": "[1]; AZD0466 340 mg/kg (100mg/kg AZD4320), day 8", "result": "696900 counts and 758300 counts and 613100 counts and 757700 counts and 754200 counts"},
      {"measurement": "Raw bioluminescence counts in individual animals", "setting": "[1]; AZD0466 340 mg/kg (100mg/kg AZD4320), day 11", "result": "628500 counts and 817700 counts and 761500 counts and 744200 counts and 883400 counts"},
      {"measurement": "Raw bioluminescence counts in individual animals", "setting": "[1]; AZD0466 340 mg/kg (100mg/kg AZD4320), day 15", "result": "1033000 counts and 1121000 counts and 987400 counts and 873700 counts and 861800 counts"},
      {"measurement": "anti-tumour activity", "setting": "[1]; disseminated Ri-1, once weekly IV", "result": "dose-dependent anti-tumour activity"},
      {"measurement": "Cummulative Release %", "setting": "[2]; 1.06 h, Replicate 1", "result": 2.56, "unit": "%"},
      {"measurement": "Cummulative Release %", "setting": "[2]; 1.24 h, Replicate 2", "result": 3.28, "unit": "%"},
      {"measurement": "Cummulative Release %", "setting": "[2]; 5.87 h, Replicate 1", "result": 9.61, "unit": "%"},
      {"measurement": "Cummulative Release %", "setting": "[2]; 6.04 h, Replicate 2", "result": 11.99, "unit": "%"},
      {"measurement": "Cummulative Release %", "setting": "[2]; 10.67 h, Replicate 1", "result": 18.75, "unit": "%"},
      {"measurement": "Cummulative Release %", "setting": "[2]; 10.85 h, Replicate 2", "result": 23.05, "unit": "%"},
      {"measurement": "Cummulative Release %", "setting": "[2]; 15.47 h, Replicate 1", "result": 27.34, "unit": "%"},
      {"measurement": "Cummulative Release %", "setting": "[2]; 15.65 h, Replicate 2", "result": 32.24, "unit": "%"},
      {"measurement": "Cummulative Release %", "setting": "[2]; 20.27 h, Replicate 1", "result": 39.17, "unit": "%"},
      {"measurement": "Cummulative Release %", "setting": "[2]; 20.45 h, Replicate 2", "result": 41.44, "unit": "%"}
    ]}
  ]
}
